Source: publication PMC12720098, “Prolintane analogs as hybrid monoamine transporter ligands: Structural determinants and species differences” (The Journal of Biological Chemistry, 2025)
Where two headings read alike, the source gives them in different places.

Experiments:
[1] = molecular target: T1, hNET (Homo sapiens, UniProt P23975); assay: Uptake inhibition assay ([3H]MPP+) in transfected HEK293 cells; assay type: cell-based
T1 construct: expressed in transfected cells
Procedure: HEK293 cells stably expressing human monoamine transporters hSERT, hDAT or hNET were seeded into poly-D-lysine (PDL) coated 96-well plates with a density of approximately 36,000 cells per well 1 day prior to experiments. A day after seeding, the cell medium was replaced with 200 μl Krebs-HEPES-buffer (KHB; 120 mM NaCl, 3 mM KCl, 2 mM CaCl2·2H2O, 2 mM MgCl2·6H2O, 20 mM D-glucose, pH = 7.3). The test drugs were initially dissolved in Milli-Q H2O or dimethyl sulfoxide (DMSO) at a concentration of 10 to 100 mM. Then, cells were treated with the respective concentration of the test drug diluted in KHB for 5 min as a pre-incubation step. Subsequently, in the uptake step, the solution was replaced with 50 μl/well diluted drug solution and tritiated substrate (hDAT: 0.1 μM [^3H]DA; hNET: 0.02 μM [^3H]MPP^+; hSERT: 0.1 μM [^3H]5-HT) for 1 min (hDAT, hSERT) or 3 min (hNET). After incubation, cells were immediately washed with 200 μl KHB to stop uptake. Uptake was indirectly measured by quantifying beta emission with liquid scintillation counting (Wallac 1450 MicroBeta TriLux Liquid Scintillation Counter & Lumi; GMI). Therefore, 200 μl Ultima Gold XR scintillation cocktail (PerkinElmer, MA, USA) was added to each well.
(§1) Half-maximal inhibitory concentrations (IC50) were obtained from fitting a sigmoidal dose–response ( Y=Bottom+Top−Bottom/1+10^((LogIC50−X)·HillSlope) ) in GraphPad Prism 10.3.1 (GraphPad Software Inc.). Uptake inhibition data were evaluated by one-way ANOVA followed by Tukey's multiple comparisons test. Release data were analyzed using a two-way ANOVA (batch release) or a mixed-effects model with Geisser-Greenhouse correction (time-dependent traces) employing Šidák correction for comparing differences between compounds with or without the addition of monensin.

[2] = molecular target: T2, rDAT (Rattus norvegicus, UniProt P23977); assay: Uptake inhibition assay ([3H]dopamine) in rat brain synaptosomes; assay type: biochemical; conditions: for DAT/SERT ratio: rat isoform (r), 1/DAT IC50 / 1/SERT IC50
T2 construct: As a means to evaluate transporter activity of prolintane analogs in native tissue preparation; from tissue; host or cells: rat caudate synaptosomes
Procedure: Rats were killed by CO2 narcosis and decapitated, then synaptosomes were prepared from brains using standard procedures. In brief, synaptosomes were prepared from caudate tissue for rat DAT (rDAT) assays, or from whole brain minus caudate and cerebellum for rat NET (rNET) and rat SERT (rSERT) assays. Brain tissue was homogenized in ice-cold 10% sucrose followed by centrifugation at 1000g for 10 min. The resulting supernatant containing crude synaptosomes was kept on ice until use in uptake or release procedures. Uptake inhibition and release assays were carried out as previously described ([62], [63]).
For uptake inhibition assays, 5 nM [^3H]dopamine, 10 nM [^3H]norepinephrine, or 5 nM [^3H]5-HT was used as the radiolabeled transmitter for rDAT, rNET, or rSERT, respectively. To optimize uptake for a single transporter, unlabeled blockers were included that prevented uptake of [^3H]transmitter by competing transporters: 50 nM GBR 12935 was added to NET and SERT assays to block DAT, 100 nM nomifensine was added to SERT assays to block NET. Uptake assays were initiated by adding 100 μl of tissue to 900 μl Krebs-phosphate buffer (126 mM NaCl, 2.4 mM KCl, 0.83 mM CaCl2, 0.8 mM MgCl2, 0.5 mM KH2PO4, 0.5 mM Na2SO4, 11.1 mM glucose, 0.05 mM pargyline, 1 mg/ml bovine serum albumin, and 1 mg/ml ascorbic acid, pH 7.4) containing test drug and [^3H]transmitter. Uptake assays were terminated by rapid vacuum filtration, and retained radioactivity was quantified with liquid scintillation counting.
Effects of test drugs on release and uptake inhibition were analyzed by nonlinear regression using GraphPad Prism 9 (GraphPad Scientific, San Diego, CA, USA). Concentration–response values for the uptake inhibition and release were fit to the equation, Y(x)=Ymin+Ymax−Ymin/1+10^((LogP50−LogX)·n) , where x is the concentration of the compound tested, Y(x) is the response measured, Ymax is the maximal response, P50 is either IC50 (the concentration that yields half-maximal uptake inhibition response) or EC50 (the concentration that yields half-maximal release response), and n is the Hill slope parameter.

[3] = molecular target: T3, hSERT (Homo sapiens, UniProt P31645); assay type: cell-based; conditions: for Mean diff, hSERT efflux ± Mon (Šídák's multiple comparisons test): drug alone vs drug + monensin (Mon); for hSERT efflux ± Mon, mean diff: superfusion
T3 construct: expressed in transfected cells
Procedure: A day prior to the experiment, HEK293 cells stably expressing hSERT or rat SERT (rSERT) were seeded at a density of 100,000 cells per channel into 6 channel flow ibidi slides (Gräfelfing, Germany). On the day of the experiments, cells were preloaded with 0.1 μM [^3H]5-HT at 37 °C, 5% CO2 for 20 min. Subsequently, the slides were transferred to the superfusion apparatus ([59]). Cells were then washed with KHB for 15 min under a constant flow of 0.5 ml/min. Fractions were collected every 2 min in 8 ml vials containing 2 ml scintillation cocktail. Collection began with three baseline fractions using KHB, followed by four additional basal release fractions with KHB, either with or without 10 μM monensin. […] To assess residual radioactivity within the cells, they were lysed with 1% sodium dodecyl sulfate (SDS), and three final fractions were obtained. The measured tritiated substrate in each fraction was expressed as a percentage of the initial tritiated substrate present at the start of that fraction.
as §1

[4] = molecular target: T3, hSERT; assay type: cell-based; conditions: batch release, % efflux of total uptake, compounds approximately at IC50 concentration
Procedure: Batch release assays were performed as described previously ([44]). In brief, HEK293 cells stably expressing monoamine transporters were seeded similar to the procedure used for uptake inhibition assays. A day after seeding cells were pre-loaded with 50 μl/well 0.015 μM [^3H]MPP^+ (hDAT, hNET), or 0.08 μM [^3H]5-HT (hSERT) for 20 min at 37 °C. Then cells were washed four times for 3 to 4 min each and further incubated with KHB or KHB + monensin. After 10 min of incubation, two (screening) to four (full traces; hSERT) 2 min incubations were performed to establish a baseline release without substance. […] Each fraction was transferred to an empty well in the 96-well plate. For screening, a known inhibitor (hDAT, hNET: 50 μM GBR12909) and releaser (hDAT, hNET: 10 μM S-(+)-amphetamine) were used as controls. Ultima Gold XR scintillation cocktail was added to the remaining cells, and each well contained a release fraction. The counted radioactivity in the respective fraction was expressed as a percentage of total radioactivity at the start of the fraction.
as §1

T1 sequence (P23975 whole entry): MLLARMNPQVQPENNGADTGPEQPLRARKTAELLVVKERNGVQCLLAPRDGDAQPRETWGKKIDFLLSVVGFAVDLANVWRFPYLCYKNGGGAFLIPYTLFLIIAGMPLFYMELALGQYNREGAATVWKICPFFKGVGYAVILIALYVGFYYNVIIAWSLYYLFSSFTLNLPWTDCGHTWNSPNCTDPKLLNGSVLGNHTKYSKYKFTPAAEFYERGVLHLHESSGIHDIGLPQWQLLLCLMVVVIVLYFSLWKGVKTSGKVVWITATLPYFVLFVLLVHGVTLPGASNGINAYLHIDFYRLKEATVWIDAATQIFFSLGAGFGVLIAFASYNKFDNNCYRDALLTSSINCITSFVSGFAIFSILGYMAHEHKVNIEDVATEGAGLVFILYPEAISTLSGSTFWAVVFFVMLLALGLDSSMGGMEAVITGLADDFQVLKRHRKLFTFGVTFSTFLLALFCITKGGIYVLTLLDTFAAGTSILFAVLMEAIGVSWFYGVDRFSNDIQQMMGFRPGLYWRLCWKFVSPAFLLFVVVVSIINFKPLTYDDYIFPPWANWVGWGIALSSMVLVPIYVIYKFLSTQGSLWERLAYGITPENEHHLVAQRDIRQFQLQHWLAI
T3 sequence (P31645 whole entry, the tested form may be a part): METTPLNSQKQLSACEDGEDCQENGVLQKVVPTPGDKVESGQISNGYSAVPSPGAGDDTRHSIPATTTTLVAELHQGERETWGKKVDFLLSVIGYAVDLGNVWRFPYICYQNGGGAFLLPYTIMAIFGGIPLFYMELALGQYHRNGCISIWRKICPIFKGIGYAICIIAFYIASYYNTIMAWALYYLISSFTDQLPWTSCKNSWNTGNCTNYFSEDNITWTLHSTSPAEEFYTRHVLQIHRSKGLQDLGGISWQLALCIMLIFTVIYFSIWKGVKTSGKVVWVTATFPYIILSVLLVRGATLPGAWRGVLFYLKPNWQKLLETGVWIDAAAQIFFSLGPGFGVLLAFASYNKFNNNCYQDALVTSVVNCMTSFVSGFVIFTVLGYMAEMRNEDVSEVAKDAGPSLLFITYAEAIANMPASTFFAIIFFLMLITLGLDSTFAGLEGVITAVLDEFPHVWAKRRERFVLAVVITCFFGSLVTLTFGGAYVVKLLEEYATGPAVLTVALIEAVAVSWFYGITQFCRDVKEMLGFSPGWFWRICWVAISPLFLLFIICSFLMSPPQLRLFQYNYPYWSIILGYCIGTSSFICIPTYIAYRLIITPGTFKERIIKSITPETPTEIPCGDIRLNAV
T2 sequence (P23977 whole entry, canonical isoform): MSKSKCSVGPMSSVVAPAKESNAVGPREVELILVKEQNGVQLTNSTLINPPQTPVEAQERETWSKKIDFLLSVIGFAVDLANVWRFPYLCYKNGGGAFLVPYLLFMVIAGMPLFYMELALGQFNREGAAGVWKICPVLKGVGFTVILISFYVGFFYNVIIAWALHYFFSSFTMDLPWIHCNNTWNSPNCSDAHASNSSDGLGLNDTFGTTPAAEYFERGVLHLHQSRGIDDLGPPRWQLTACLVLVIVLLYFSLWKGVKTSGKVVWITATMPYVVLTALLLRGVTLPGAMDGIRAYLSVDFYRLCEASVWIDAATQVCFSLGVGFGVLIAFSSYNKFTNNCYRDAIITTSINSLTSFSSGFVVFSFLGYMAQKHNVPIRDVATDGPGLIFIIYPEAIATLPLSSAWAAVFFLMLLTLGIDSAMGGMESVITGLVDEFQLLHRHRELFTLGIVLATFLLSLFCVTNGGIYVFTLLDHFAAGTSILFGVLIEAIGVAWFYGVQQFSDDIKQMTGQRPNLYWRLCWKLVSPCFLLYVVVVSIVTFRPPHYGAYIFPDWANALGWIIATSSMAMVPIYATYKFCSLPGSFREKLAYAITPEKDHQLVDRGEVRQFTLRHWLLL

| SMILES | IC50 [1] [nM] | IC50 [2] [nM] | DAT/SERT ratio [2] | Mean diff, hSERT efflux ± Mon (Šídák's multiple comparisons test) ([3]; Row 1 (time fraction)) | Mean diff, hSERT efflux ± Mon (Šídák's multiple comparisons test) ([3]; Row 2 (time fraction)) | Mean diff, hSERT efflux ± Mon (Šídák's multiple comparisons test) ([3]; Row 3 (time fraction)) | Mean diff, hSERT efflux ± Mon (Šídák's multiple comparisons test) ([3]; Row 4 (time fraction)) | Mean diff, hSERT efflux ± Mon (Šídák's multiple comparisons test) ([3]; Row 5 (time fraction)) | Mean diff, hSERT efflux ± Mon (Šídák's multiple comparisons test) ([3]; Row 6 (time fraction)) | Mean diff, hSERT efflux ± Mon (Šídák's multiple comparisons test) ([3]; Row 7 (time fraction)) | Mean diff, hSERT efflux ± Mon (Šídák's multiple comparisons test) ([3]; Row 8 (time fraction)) | Mean diff, hSERT efflux ± Mon (Šídák's multiple comparisons test) ([3]; Row 9 (time fraction)) | Mean diff, hSERT efflux ± Mon (Šídák's multiple comparisons test) ([3]; Row 10 (time fraction)) | Mean diff, hSERT efflux ± Mon (Šídák's multiple comparisons test) ([3]; Row 11 (time fraction)) | Mean diff, hSERT efflux ± Mon (Šídák's multiple comparisons test) ([3]; Row 12 (time fraction)) | hSERT-mediated efflux, predicted (LS) mean diff, No mon - Mon [4] | further results |
| --- | --- | --- | --- | --- | --- | --- | --- | --- | --- | --- | --- | --- | --- | --- | --- | --- | --- |
| CCCC(Cc1ccccc1F)N1CCCC1 (centres unmarked) [2-Fluoroprolintane, 1-[1-(2-fluorophenyl)pentan-2-yl]pyrrolidine] | 102 ± 22 | 117 ± 10 | 19 | -0.05533 | -0.01811 | -0.031 | -0.05989 | -0.128 | -0.2267 | -0.3166 | -4.727 | -7.079 | -7.103 | -6.897 | -6.561 | -6.392 |  |
| CCCC(Cc1ccccc1C)N1CCCC1 (centres unmarked) [2-Methylprolintane, 1-[1-(2-methylphenyl)pentan-2-yl]pyrrolidine] | 119 ± 49 | 324 ± 25 | 1 |  |  |  |  |  |  |  |  |  |  |  |  | -4.459 | hSERT efflux ± Mon, mean diff ([3]; Row 1 (2 min fraction 1, baseline KHB)): 0.1289; hSERT efflux ± Mon, mean diff ([3]; Row 2 (2 min fraction 2, baseline KHB)): 0.1185; hSERT efflux ± Mon, mean diff ([3]; Row 3 (2 min fraction 3, baseline KHB)): 0.1694; hSERT efflux ± Mon, mean diff ([3]; Row 4 (fraction 4, KHB with or without 10 μM monensin)): 0.04832; hSERT efflux ± Mon, mean diff ([3]; Row 5 (fraction 5, KHB with or without 10 μM monensin)): -0.1068; hSERT efflux ± Mon, mean diff ([3]; Row 6 (fraction 6, KHB with or without 10 μM monensin)): -0.2079; hSERT efflux ± Mon, mean diff ([3]; Row 7 (fraction 7, KHB with or without 10 μM monensin)): -0.2202; hSERT efflux ± Mon, mean diff ([3]; Row 8 (fraction 8, compound at IC50 concentration)): -5.467; hSERT efflux ± Mon, mean diff ([3]; Row 9 (fraction 9, compound at IC50 concentration)): -7.92; hSERT efflux ± Mon, mean diff ([3]; Row 10 (fraction 10, compound at IC50 concentration)): -7.744; hSERT efflux ± Mon, mean diff ([3]; Row 11 (fraction 11, compound at IC50 concentration)): -7.355; hSERT efflux ± Mon, mean diff ([3]; Row 12 (fraction 12, compound at IC50 concentration)): -7.467 |
| CCCC(Cc1cccc(F)c1)N1CCCC1 (centres unmarked) [3-Fluoroprolintane, 1-[1-(3-fluorophenyl)pentan-2-yl]pyrrolidine] | 35 ± 11 | 58 ± 4 | 9 | 0,003889 | -0,003000 | 0,02067 | -0,01133 | -0,1369 | -0,2296 | -0,2910 | -4,827 | -7,510 | -7,391 | -7,140 | -7,011 | -5.404 |  |
| CCCC(Cc1cccc(C)c1)N1CCCC1 (centres unmarked) [3-Methylprolintane, 1-[1-(3-methylphenyl)pentan-2-yl]pyrrolidine] | 139 ± 33 | 111 ± 8 | 1.25 | 0.05456 | 0.01844 | 0.02833 | 0.07733 | -0.1496 | -0.229 | -0.329 | -4.546 | -6.038 | -6.018 | -5.904 | -5.776 | -5.6 |  |
| CCCC(Cc1ccc(F)cc1)N1CCCC1 (centres unmarked) [4-Fluoroprolintane, 1-[1-(4-fluorophenyl)pentan-2-yl]pyrrolidine] | 307 ± 97 | 213 ± 13 | 4.2 | -0,0007778 | 0,02200 | 0,004889 | -0,08044 | -0,1983 | -0,2323 | -0,3017 | -8,349 | -9,598 | -8,382 | -7,454 | -6,666 | -7.206 |  |
